Test results: EP4678638A1, “NEW E3 UBIQUITIN LIGASE LIGAND, PROTEIN DEGRADATION AGENT AND USE THEREOF” (priority 2023, dated 2024)

Key:
H2228 = experiment: CCK-8 proliferation, NCI-H2228 (H2228); format: cell-based; conditions: Homo sapiens, NCI-H2228; Table B6, compounds designed based on the ALK inhibitors; H2228 cells; read-out: Inhibitory activity (IC50, nM) on tumor cell proliferation, H2228
Description: (§1) The tumor cells used herein were cultured in a cell culture medium listed in table A1 at 37°C in an incubator with 5% CO2. Prior to experimentation, all cell lines used were correctly identified by STR profiling, and tested negative for mycoplasma contamination using a mycoplasma detection kit through routine screenings. Table A1. Tumor cells and cell culture medium used in the present disclosure
(§2) IC50 values of the compounds of the present disclosure (including the compounds in Table 1, and compounds of examples) were measured using the Meilun Cell Counting Kit-8 kit from Dalian Meilun Biotech Co., Ltd. Assay details are as follows: tumor cells were seeded in a 96-well plate at a density listed in Table A2. After 24h, 100 µL of the inoculated cells were treated with 0.5µL of the compounds of the present disclosure (including the compounds in Tables 1 and 2, and compounds of examples) at 10 different successively decreasing concentrations (starting at the highest concentration of 10µM; 5-fold serial dilutions). After the cells were treated with the compounds of the present disclosure for a period of time, the cell viability detection reagent was added to the culture medium for cell viability assessment according to the instructions provided with the CCK-8 kit. […] The growth inhibition of the compounds of the present disclosure on cells was plotted by Prism Graphpad software, and the IC50 values of the compounds of the present disclosure were calculated therefrom. […] Seeding protocol and treatment time for tumor cells

MCF7 = experiment: CCK-8 proliferation, MCF7 (MCF-7); format: cell-based; conditions: Homo sapiens, MCF7; Table B6, compounds designed based on the ALK inhibitors; MCF-7 cells; read-out: Inhibitory activity (IC50, nM) on tumor cell proliferation, MCF-7
Description: as §1, §2

SR = experiment: CCK-8 proliferation, SR; format: cell-based, Human; conditions: Homo sapiens; Table B6, compounds designed based on the ALK inhibitors; SR cells; read-out: Inhibitory activity (IC50, nM) on tumor cell proliferation, SR
Description: as §1, §2

H1975 = experiment: CCK-8 proliferation, NCI-H1975 (H1975); format: cell-based, Human; conditions: Homo sapiens, NCI-H1975; Table B6, compounds designed based on the ALK inhibitors; H1975 cells; read-out: Inhibitory activity (IC50, nM) on tumor cell proliferation, H1975
Description: as §1, §2

IC50 (H2228) | IC50 (MCF7) | IC50 (H1975) | SMILES | IC50 (SR)
50 to 100 nM | 500 to 1000 nM | – | CCc1cc2c(cc1N1CCC(N3CCN(Cc4cc(N5CCC(=O)NC5=O)ncc4F)CC3)CC1)C(C)(C)c1[nH]c3cc(C#N)ccc3c1C2=O [GT-07700, 8-(4-(4-((2-(2,4-dioxotetrahydropyrimidin-1(2H)-yl)-5-fluoropyridin-4-yl)methyl)piperazin-1-yl)piperidin-1-yl)-9-ethyl-6,6-dimethyl-11-oxo-6,11-dihydro-5H-benzo[b]carbazole-3-carbonitrile] | 1 to 10 nM
50 to 100 nM | 500 to 1000 nM | – | CCc1cc2c(cc1N1CCC(N3CCN(Cc4ccnc(N5CCC(=O)NC5=O)c4)CC3)CC1)C(C)(C)c1[nH]c3cc(C#N)ccc3c1C2=O [GT-07701, 8-(4-(4-((2-(2,4-dioxotetrahydropyrimidin-1(2H)-yl)pyridin-4-yl)methyl)piperazin-1-yl)piperidin-1-yl)-9-ethyl-6,6-dimethyl-11-oxo-6,11-dihydro-5H-benzo[b]carbazole-3-carbonitrile] | 1 to 10 nM
50 to 100 nM | 100 to 500 nM | 500 to 1000 nM | CCc1cc2c(cc1N1CCC(N3CCN(Cc4ccc(C5CCC(=O)NC5=O)cn4)CC3)CC1)C(C)(C)c1[nH]c3cc(C#N)ccc3c1C2=O (centres unmarked) [GT-07705, 8-(4-(4-((5-(2,6-dioxopiperidin-3-yl)pyridin-2-yl)methyl)piperazin-1-yl)piperidin-1-yl)-9-ethyl-6,6-dimethyl-11-oxo-6,11-dihydro-5H-benzo[b]carbazole-3-carbonitrile] | 1 to 10 nM
100 to 500 nM | 500 to 1000 nM | 100 to 500 nM | COc1cc(N2CCN(Cc3ccnc(N4CCC(=O)NC4=O)c3)CC2)ccc1Nc1ncc(Cl)c(Nc2ccccc2P(C)(C)=O)n1 [GT-07708, 1-(4-((4-(4-((5-chloro-4-((2-(dimethylphosphoryl)phenyl)amino)pyrimidin-2-yl)amino)-3-methoxyphenyl)piperazin-1-yl)methyl)pyridin-2-yl)dihydropyrimidine-2,4(1H,3H)-dione] | 10 to 50 nM
50 to 100 nM | – | 500 to 1000 nM | CCc1cc2c(cc1N1CCC(N3CCN(Cc4ccnc(C5CCC(=O)NC5=O)c4)CC3)CC1)C(C)(C)c1[nH]c3cc(C#N)ccc3c1C2=O (centres unmarked) [GT-07704, 8-(4-(4-((2-(2,6-dioxopiperidin-3-yl)pyridin-4-yl)methyl)piperazin-1-yl)piperidin-1-yl)-9-ethyl-6,6-dimethyl-11-oxo-6,11-dihydro-5H-benzo[b]carbazole-3-carbonitrile] | 1 to 10 nM
500 to 1000 nM | 100 to 500 nM | 500 to 1000 nM | COc1cc(N2CCN(Cc3cc(C4CCC(=O)NC4=O)cnc3F)CC2)ccc1Nc1ncc(Cl)c(Nc2ccccc2P(C)(C)=O)n1 (centres unmarked) [GT-07710, 3-(5-((4-(4-((5-chloro-4-((2-(dimethylphosphoryl)phenyl)amino)pyrimidin-2-yl)amino)-3-methoxyphenyl)piperazin-1-yl)methyl)-6-fluoropyridin-3-yl)piperidine-2,6-dione] | 10 to 50 nM
100 to 500 nM | – | 500 to 1000 nM | COc1cc(N2CCN(Cc3ccc(N4CCC(=O)NC4=O)nc3)CC2)ccc1Nc1ncc(Cl)c(Nc2ccccc2P(C)(C)=O)n1 [GT-07350, 1-(5-((4-(4-((5-chloro-4-((2-(dimethylphosphoryl)phenyl)amino)pyrimidin-2-yl)amino)-3-methoxyphenyl)piperazin-1-yl)methyl)pyridin-2-yl)dihydropyrimidine-2,4(1H,3H)-dione] | 50 to 100 nM
100 to 500 nM | – | 500 to 1000 nM | COc1cc(N2CCN(Cc3ccnc(C4CCC(=O)NC4=O)c3)CC2)ccc1Nc1ncc(Cl)c(Nc2ccccc2P(C)(C)=O)n1 (centres unmarked) [GT-07712, 3-(4-((4-(4-((5-chloro-4-((2-(dimethylphosphoryl)phenyl)amino)pyrimidin-2-yl)amino)-3-methoxyphenyl)piperazin-1-yl)methyl)pyridin-2-yl)piperidine-2,6-dione] | 10 to 50 nM
100 to 500 nM | – | – | CCc1cc2c(cc1N1CCC(N3CCN(Cc4cccc(NC5CCC(=O)NC5=O)c4)CC3)CC1)C(C)(C)c1[nH]c3cc(C#N)ccc3c1C2=O (centres unmarked) [GT-07313, 8-(4-(4-(3-((2,6-dioxopiperidin-3-yl)amino)benzyl)piperazin-1-yl)piperidin-1-yl)-9-ethyl-6,6-dimethyl-11-oxo-6,11-dihydro-5H-benzo[b]carbazole-3-carbonitrile] | 1 to 10 nM
100 to 500 nM | 100 to 500 nM | – | CCc1cc2c(cc1N1CCC(N3CCN(Cc4ccc(N5CCC(=O)NC5=O)cc4)CC3)CC1)C(C)(C)c1[nH]c3cc(C#N)ccc3c1C2=O [GT-07307, 8-(4-(4-(4-(2,4-dioxotetrahydropyrimidin-1(2H)-yl)benzyl)piperazin-1-yl)piperidin-1-yl)-9-ethyl-6,6-dimethyl-11-oxo-6,11-dihydro-5H-benzo[b]carbazole-3-carbonitrile] | 10 to 50 nM
100 to 500 nM | – | – | Cc1cc(Nc2ncc(Cl)c(Nc3ccccc3S(=O)(=O)C(C)C)n2)c(OC(C)C)cc1C1CCN(Cc2ccc(C3CCC(=O)NC3=O)c(F)c2)CC1 (centres unmarked) [GT-07365, 3-(4-((4-(4-((5-chloro-4-((2-(isopropylsulfonyl)phenyl)amino)pyrimidin-2-yl)amino)-5-isopropoxy-2-methylphenyl)piperidin-1-yl)methyl)-2-fluorophenyl)piperidine-2,6-dione] | 100 to 500 nM
100 to 500 nM | 500 to 1000 nM | 500 to 1000 nM | COc1cc(N2CCN(Cc3cc(N4CCC(=O)NC4=O)ncc3F)CC2)ccc1Nc1ncc(Cl)c(Nc2ccccc2P(C)(C)=O)n1 [GT-07707, 1-(4-((4-(4-((5-chloro-4-((2-(dimethylphosphoryl)phenyl)amino)pyrimidin-2-yl)amino)-3-methoxyphenyl)piperazin-1-yl)methyl)-5-fluoropyridin-2-yl)dihydropyrimidine-2,4(1H,3H)-dione] | 10 to 50 nM
500 to 1000 nM | – | – | COc1cc(N2CCN(Cc3cncc(N4CCC(=O)NC4=O)c3)CC2)ccc1Nc1ncc(Cl)c(Nc2ccccc2P(C)(C)=O)n1 [GT-07709, 1-(5-((4-(4-((5-chloro-4-((2-(dimethylphosphoryl)phenyl)amino)pyrimidin-2-yl)amino)-3-methoxyphenyl)piperazin-1-yl)methyl)pyridin-3-yl)dihydropyrimidine-2,4(1H,3H)-dione] | 50 to 100 nM
100 to 500 nM | 100 to 500 nM | 100 to 500 nM | COc1cc(N2CCC(N(C)Cc3cc(N4CCC(=O)NC4=O)ncc3F)CC2)ccc1Nc1ncc(Cl)c(Nc2ccccc2P(C)(C)=O)n1 [GT-07693, 1-(4-(((1-(4-((5-chloro-4-((2-(dimethylphosphoryl)phenyl)amino)pyrimidin-2-yl)amino)-3-methoxyphenyl)piperidin-4-yl)(methyl)amino)methyl)-5-fluoropyridin-2-yl)dihydropyrimidine-2,4(1H,3H)-dione] | 10 to 50 nM
